Test results taken from US6352982B1, “4,1-benzoxazepines, their analogues, and their use as somatostatin agonists” (Takeda Chemical Industries, Ltd., priority 1997, dated 2002).
Where a name gives a salt, the structure may show the parent alone.

System: SD rats
Assay: Insulin secretion inhibition study using SD rats
Assay type: in vivo, rat
Description: In order to study the inhibitory effect of the compound of Example 5 on the insulin secretion after the stimulation by glucose, blood was withdrawn at various time intervals after the simultaneous intravenous administration of the compound of Example 5 and glucose. Serum insulin concentrations were determined by RIA.
Male rats of SD strain (8 weeks of age, n=3) were weighed and anesthetized by the intraperitoneal administration of 50 mg/kg of pentobarbital. As blood clotting inhibitor 30 mg of EDTA was dissolved in 300 μl of 50,000 units/ml Trasylol (Bayer) solution, and the solution was placed into Eppendorf blood collecting tubes each in quantity of […]. After fixing the rat on the rat fixing apparatus, the unilateral jugular vein was exposed and 100 μl of the blood was withdrawn from the vein by using a 25G injection needle. The test solution for the control group [without glucose] was saline containing 5% propylene glycol and 30% hydroxypropyl-β-cyclodextrin. The test solution for the control group [with glucose] was saline containing 5% propylene glycol, 30% hydroxypropyl-β-cyclodextrin, and 300 mg/kg/ml of glucose. […]
Plasma insulin concentrations were determined by RIA using the rat insulin [125I] assay system (Amersham). […] The radioactivity of the sediment was measured by gamma counter. […]

NCc1cccc(C2OC(CC(=O)NCc3ccccc3F)C(=O)N(Cc3ccc(-c4ccccc4)cc3)c3ccc(Cl)cc32)c1 (stereo not drawn) [Example 5, 3,5-Trans-N-(2-fluorobenzyl)-5-(3-aminomethylphenyl)-1-(4-biphenylmethyl)-7-chloro-2-oxo-1,2,3,5-tetrahydro-4,1-benzoxazepine-3-acetamide•monohydrochloride] was tested, and the “Elevation of the plasma insulin concentration after glucose” value (intravenous 0.003, 0.03, 0.3 or 3 mg/kg with glucose, male SD rats) was “dose-dependently inhibited” and the “Dosage which inhibited the elevation of insulin concentration by 50%” value (simultaneous intravenous administration with glucose, anesthetized male SD rats) was “about 0.03 mg/kg”.
